Laboratory results from PMC2193054 (The Journal of Experimental Medicine, 1999).
Values joined by “and” are separate entries in the source; they are usually repeats but may differ in a detail not shown here. Equal entries are not always repeated. Where two headings read alike, the source gives them in different places. Marks after values point to notes of the source that are not given here.

Key:
[1] = system: M. tuberculosis; assay type: cell-based
[2] = target: T1, M. tuberculosis glutamine synthetase (Mycobacterium tuberculosis, UniProt P9WN39); assay type: cell-based, M. tuberculosis Erdman
T1 sequence (P9WN39 2-478): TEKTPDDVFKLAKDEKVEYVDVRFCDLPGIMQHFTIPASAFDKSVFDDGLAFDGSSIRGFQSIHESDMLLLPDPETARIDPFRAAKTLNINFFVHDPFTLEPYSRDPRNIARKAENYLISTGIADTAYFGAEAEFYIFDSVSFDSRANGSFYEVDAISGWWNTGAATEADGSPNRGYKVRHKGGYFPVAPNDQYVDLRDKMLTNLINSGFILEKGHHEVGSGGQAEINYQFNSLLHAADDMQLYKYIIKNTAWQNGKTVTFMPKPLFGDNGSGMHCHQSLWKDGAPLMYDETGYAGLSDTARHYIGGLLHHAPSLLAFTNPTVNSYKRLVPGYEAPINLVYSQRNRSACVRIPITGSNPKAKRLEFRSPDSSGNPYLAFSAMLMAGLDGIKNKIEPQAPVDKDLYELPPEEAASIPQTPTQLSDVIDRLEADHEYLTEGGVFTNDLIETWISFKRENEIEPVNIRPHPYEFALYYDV

[3] = system: M. tuberculosis Erdman; assay type: cell-based
[4] = target: T1, M. tuberculosis glutamine synthetase; assay type: biochemical, M. tuberculosis Erdman
[5] = system: E. coli DH5α; assay type: cell-based; details: 6 h
[6] = system: L. pneumophila Philadelphia 1; assay type: cell-based; details: 24 h
[7] = system: γ-glutamylcysteine synthetase; details: in contrast to glutamine synthetase; cited from earlier work
[8] = system: M. bovis BCG; assay type: cell-based
[9] = system: M. tuberculosis H37Rv; assay type: cell-based
[10] = system: M. phlei; assay type: cell-based; details: 3 d
[11] = target: T2, E. coli glutamine synthetase (Escherichia coli, UniProt P0A9C5); assay type: biochemical, E. coli W
T2 sequence (P0A9C5 2-469 limits assumed): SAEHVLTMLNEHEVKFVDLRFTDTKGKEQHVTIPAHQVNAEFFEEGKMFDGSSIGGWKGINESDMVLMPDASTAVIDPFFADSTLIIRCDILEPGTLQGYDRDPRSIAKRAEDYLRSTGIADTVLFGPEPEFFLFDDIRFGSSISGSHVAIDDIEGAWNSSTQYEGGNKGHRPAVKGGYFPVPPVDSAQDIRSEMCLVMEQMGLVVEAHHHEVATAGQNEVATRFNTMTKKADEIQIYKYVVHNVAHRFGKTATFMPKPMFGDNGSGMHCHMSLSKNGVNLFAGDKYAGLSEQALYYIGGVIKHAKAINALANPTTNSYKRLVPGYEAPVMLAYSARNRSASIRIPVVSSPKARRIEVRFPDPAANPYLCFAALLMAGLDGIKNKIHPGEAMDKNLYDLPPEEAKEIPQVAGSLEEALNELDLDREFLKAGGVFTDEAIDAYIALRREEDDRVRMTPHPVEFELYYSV

[12] = system: THP-1 human monocytes
[13] = system: M. bovis; assay type: cell-based
[14] = system: M. avium (25291; ATCC); assay type: cell-based
[15] = system: M. avium; assay type: cell-based
[16] = system: M. smegmatis; assay type: cell-based
[17] = system: M. tuberculosis Erdman; assay type: cell-based; remark: listed apart in the source
[18] = target: T1, M. tuberculosis glutamine synthetase; assay type: cell-based, M. tuberculosis (expressed in M. smegmatis); details: 200 μM
[19] = system: recombinant M. tuberculosis glutamine synthetase; assay type: cell-based, M. tuberculosis (expressed in M. smegmatis); details: 200 μM
[20] = system: M. tuberculosis superoxide dismutase; assay type: cell-based; details: 20 μM
[21] = system: sheep brain glutamine synthetase; assay type: biochemical

Question: Which results are given for `NCC[C@H](O)C(=O)N[C@@H]1C[C@H](N)[C@@H](O[C@H]2O[C@H](CN)[C@@H](O)[C@H](O)[C@H]2O)[C@H](O)[C@H]1O[C@H]1O[C@H](CO)[C@@H](O)[C@H](N)[C@H]1O` [Amikacin, amikacin]?
Answer: influence on the content of either poly-L-glutamate/glutamine or D,L-alanine [1]: little influence; D,L-Alanine ([1]; 0.06 μg/ml): 29.1 μg/10^10 Cells; Poly-L-Glutamate/glutamine ([1]; 0.06 μg/ml): 49.9 μg/10^10 Cells; D,L-Alanine ([1]; 0.25 μg/ml): 26.3 μg/10^10 Cells; Poly-L-Glutamate/glutamine ([1]; 0.25 μg/ml): 43.2 μg/10^10 Cells; D,L-Alanine ([1]; 1 μg/ml): 12.0^a μg/10^10 Cells; Poly-L-Glutamate/glutamine ([1]; 1 μg/ml): 26.0^a μg/10^10 Cells

Question: With `NNC(=O)c1ccncc1` [isoniazid] as the molecule, how does the “effect on intracellular or extracellular glutamine synthetase activity” value [2] read?
Answer: Its value is “negligible effect”.

Question: Which “effect on intracellular or extracellular glutamine synthetase activity” value [2] does the source give for `CC[C@@H](CO)NCCN[C@@H](CC)CO` [ethambutol] here?
Answer: Its value is “negligible effect”.

Question: What does the source list for `CS(=N)(=O)CC[C@H](N)C(=O)O` (stereo partly drawn) [L-methionine-S-sulfoximine]?
Answer: effect on cell growth [3]: blocked cell growth almost immediately; growth [3]: completely inhibited; growth lag behind uninhibited cultures with L-glutamine added [3]: 0.4–1.3 log units; reversal of growth inhibition by L-glutamine [3]: almost complete; growth lag behind untreated control cultures ([3]; 0.2 μM): 0.1–0.2 log units; growth plateau below that of control cultures ([3]; 2 μM): ~2 log units; sensitivity of growth to the inhibitor ([3]; 0.2-200 μM): highly sensitive; remaining enzyme activity (% of initial activity) ([4]; 2 µM): < 10% and 3–10%; remaining enzyme activity (% of initial activity) ([4]; 20 μM): < 10%; remaining enzyme activity (% of initial activity) ([4]; 200 μM): ≤ 0.5%; sensitivity of growth to the inhibitor [5]: insensitive; sensitivity of growth to the inhibitor [6]: insensitive; nature of the inhibition of γ-glutamylcysteine synthetase [7]: reversible; sensitivity of growth to the inhibitor [8]: highly sensitive; sensitivity of growth to the inhibitor [9]: highly sensitive; sensitivity of growth to the inhibitor [10]: insensitive; effect on the quantity of glutamine synthetase protein exported [2]: no detectable effect; cell-associated glutamine synthetase activity (plateau) ([2]; 20 μM): ~50 mU; decrease of cell-associated glutamine synthetase activity from the uninhibited level ([2]; 20 μM): 14%; extracellular glutamine synthetase activity ([2]; 20 μM): ~4.5 mU; reduction of extracellular glutamine synthetase activity from the uninhibited level ([2]; 20 μM): 80%; remaining enzyme activity (% of initial activity) ([11]; 2 µM): < 10% and 3–10%; remaining enzyme activity (% of initial activity) ([11]; 20 μM): < 10%; remaining enzyme activity (% of initial activity) ([11]; 200 μM): ≤ 0.5%; effect on morphology, doubling time, or viability [12]: no effect; D,L-Alanine ([1]; 0.2 μM): 21.2 μg/10^10 Cells; Poly-L-Glutamate/glutamine ([1]; 0.2 μM): 18.2 μg/10^10 Cells; D,L-Alanine ([1]; 2 μM): 17.7 μg/10^10 Cells; Poly-L-Glutamate/glutamine ([1]; 2 μM): 9.8 μg/10^10 Cells; D,L-Alanine ([1]; 20 μM): 17.8 μg/10^10 Cells; Poly-L-Glutamate/glutamine ([1]; 20 μM): 6.1 μg/10^10 Cells; sensitivity of growth to the inhibitor [13]: highly sensitive; growth of intracellular bacteria ([14]; 2 μM): uninhibited; growth of intracellular bacteria ([14]; 200 μM): strongly inhibited; sensitivity of growth to the inhibitor [15]: intermediate; growth rate of parent and recombinant M. smegmatis strain ([16]; 200 μM): unaffected; sensitivity of growth to the inhibitor ([16]; 3 d): insensitive; growth of intracellular bacteria ([17]; 2 μM): slowed; growth of intracellular bacteria ([17]; 200 μM): strongly inhibited; decrease of extracellular glutamine synthetase activity of the recombinant strain [18]: 89%; decrease of cell-associated glutamine synthetase activity (sum of endogenous and recombinant enzymes) [19]: 17%; activity or quantity of extracellular superoxide dismutase compared with untreated cultures [20]: no reduction; inactivation at the highest dose of inhibitor [21]: not completely inactivated; remaining enzyme activity (% of initial activity) ([21]; 2 μM): ~40%; Ki ([21]; read-out: Ki L-Ms): 110 µM

Question: Which “effect on intracellular or extracellular glutamine synthetase activity” value [2] does the source give for `NC(=O)c1cnccn1` [pyrazinamide] here?
Answer: The value was “negligible effect”.

Question: For `CP(=O)(O)CCC(N)C(=O)O` (racemic) [D,L-phosphinothricin], which “cell density lag behind uninhibited cultures” value ([3]; 20, 200, 2,000 μM) is on record?
Answer: Its value is 0.5–1.5 log units.

Question: And the “remaining enzyme activity (% of initial activity)” value ([4]; 2 µM)?
Answer: The value was < 10% and 3–10%.

Question: And the “remaining enzyme activity (% of initial activity)” value ([4]; 20 μM)?
Answer: Its value is no more than 0.5%.

Question: What about the “remaining enzyme activity (% of initial activity)” value ([4]; 200 μM) of the same molecule?
Answer: The value was no more than 0.5%.

Question: And the “remaining enzyme activity (% of initial activity)” value ([11]; 2 µM)?
Answer: The value was < 10% and 3–10%.

Question: And the “remaining enzyme activity (% of initial activity)” value ([11]; 20 μM)?
Answer: Its value is no more than 0.5%.

Question: What about the “remaining enzyme activity (% of initial activity)” value ([11]; 200 μM) of the same molecule?
Answer: Its value is no more than 0.5%.

Question: What about the “inactivation at the highest dose of inhibitor” value [21] of the same molecule?
Answer: Its value is “not completely inactivated”.

Question: What about the “remaining enzyme activity (% of initial activity)” value [21] of the same molecule?
Answer: The value was roughly 25%.

Question: And the “remaining enzyme activity (% of initial activity)” value ([21]; 2 μM)?
Answer: Its value is 60%.

Question: And the Ki ([21]; read-out: Ki D,L-Ppt)?
Answer: The Ki was 16.4 µM.

Question: Which “effect on intracellular or extracellular glutamine synthetase activity” value [2] does the source give for `CO[C@H]1/C=C/O[C@@]2(C)Oc3c(C)c(O)c4c(O)c(c(/C=N/N5CCN(C)CC5)c(O)c4c3C2=O)NC(=O)/C(C)=C\C=C\[C@H](C)[C@H](O)[C@@H](C)[C@@H](O)[C@@H](C)[C@H](OC(C)=O)[C@@H]1C` [Rifampin, rifampin] here?
Answer: The value was “negligible effect”.

Question: What about the “influence on the content of either poly-L-glutamate/glutamine or D,L-alanine” value [1] of the same molecule?
Answer: Its value is “little influence”.

Question: What about the “D,L-Alanine” value ([1]; 0.0125 μg/ml) of the same molecule?
Answer: Its value is 23.6 μg/10^10 Cells.

Question: What about the Poly-L-Glutamate/glutamine ([1]; 0.0125 μg/ml) of the same molecule?
Answer: The Poly-L-Glutamate/glutamine was 54.2 μg/10^10 Cells.

Question: What about the “D,L-Alanine” value ([1]; 0.05 μg/ml) of the same molecule?
Answer: Its value is 25.1 μg/10^10 Cells.

Question: And the Poly-L-Glutamate/glutamine ([1]; 0.05 μg/ml)?
Answer: The Poly-L-Glutamate/glutamine was 41.6 μg/10^10 Cells.

Question: And the “D,L-Alanine” value ([1]; 0.2 μg/ml)?
Answer: The value was 20.0^a μg/10^10 Cells.

Question: And the Poly-L-Glutamate/glutamine ([1]; 0.2 μg/ml)?
Answer: The Poly-L-Glutamate/glutamine was 40.0^a μg/10^10 Cells.
